Results from patent US6605630B1, “Antibiotic oxazolidinone derivatives” (Syngenta Limited, priority 1997, dated 2003).

Columns and labels:
[1] = tested on: Coagulase Negative Staphylococci MR
Protocol: (§1) The activity is described in terms of the minimum inhibitory concentration (MIC) determined by the agar-dilution technique with an inoculum size of 10^4 CFU/spot.
(§2) Staphylococci were tested on agar, using an inoculum of 10^4 CFU/spot and an incubation temperature of 37° C. for 24 hours-standard test conditions for the expression of methicillin resistance.

[2] = tested on: Coagulase Negative Staphylococci MS
Protocol: as §1, §2

[3] = tested on: Staphylococcus aureus MRQR
Protocol: as §1, §2

[4] = tested on: Staphylococcus aureus Novb. Res.
Protocol: as §1, §2

[5] = tested on: Staphylococcus aureus Oxford
Protocol: as §1, §2

[6] = tested on: Enterococcus faecalis; details: agar with 5% defibrinated horse blood, 10^4 CFU/spot, 37° C., 5% carbon dioxide, 48 hours
Protocol: as §1
(§3) Streptococci and enterococci were tested on agar supplemented with 5% defibrinated horse blood, an inoculum of 10^4 CFU/spot and an incubation temperature of 37° C. in an atmosphere of 5% carbon dioxide for 48 hours-blood is required for the growth of some of the test organisms.

[7] = tested on: Streptococcus pyogenes C203; details: agar with 5% defibrinated horse blood, 10^4 CFU/spot, 37° C., 5% carbon dioxide, 48 hours
Protocol: as §1, §3

[8] = tested on: Bacillus subtilis
Source text: as §1

“N-((5S)-3-(4-((7aS)[3H,5H]-3-oxo-1,7a-Dihydropyrrolol[1,2c]oxazol-6-yl)phenyl)-2-oxooxazolidin-5-ylmethyl)acetamide [Example 44]” showed an MIC [1] of 0.50 µg/mL, an MIC [2] of 0.13 µg/mL and an MIC [3] of 2.00 µg/mL. It also gave an MIC [4] of 0.50 µg/mL, an MIC [5] of 0.25 µg/mL and an MIC [6] of 0.50 µg/mL. For the same substance, the MIC [7] was 0.13 µg/mL and the MIC [8] was 0.50 µg/mL.
